The values below come from article PMC8041284, “Tunable Methacrylamides for Covalent Ligand Directed Release Chemistry” (Journal of the American Chemical Society, 2021).

The first assay deals with BTK (Homo sapiens, UniProt Q06187). In words: biochemical. Conditions: read-out: BTK inhibition (%).
Sequence of BTK (Q06187 402-655 limits assumed): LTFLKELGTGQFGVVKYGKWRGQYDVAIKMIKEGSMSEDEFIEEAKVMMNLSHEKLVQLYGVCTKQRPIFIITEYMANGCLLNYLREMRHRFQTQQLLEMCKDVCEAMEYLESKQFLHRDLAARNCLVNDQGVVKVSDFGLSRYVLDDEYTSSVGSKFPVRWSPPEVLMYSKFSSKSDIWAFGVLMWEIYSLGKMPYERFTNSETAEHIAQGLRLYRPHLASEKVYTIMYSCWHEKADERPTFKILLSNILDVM
One may read the inhibition as the drop in the measured response relative to a control, in per cent. With `Cc1c(N[C@@H](c2nnc(-c3ccc(C#N)cc3)o2)[C@H](C)O)ccc(C#N)c1Cl` [PCM-0216075], the inhibition at 10 µM came to 17.8%.

The assay is the same for the next values; noted with them: read-out: BTK inhibition (%), 0.75 uM BTK, […] probe 3l, 15 min preincubation.
`CN(C)c1ccc2nc3ccc(=[N+](C)C)cc-3sc2c1` [PCM-0090465]: the inhibition at 10 µM amounted to 42.8%.

As for `Cc1ccc(Sc2cncc3sc(C(N)=O)cc23)cc1` [PCM-0095339], the inhibition at 10 µM is -3.9%.

`COC[C@H](NC(=O)c1cnc(C)s1)C(=O)N[C@@H](COC)C(=O)N[C@@H](Cc1ccccc1)C(=O)[C@@]1(C)CO1` [PCM-0095574]: the inhibition at 10 µM was -4.6%.

In the case of `N[C@@H]1CN(c2c(F)cc3c(=O)c(C(=O)O)cn([C@@H]4C[C@@H]4F)c3c2Cl)CC12CC2` [PCM-0095203], the inhibition at 10 µM was -6.8%.

For the molecule `CCCCCCCCCCCC[N+](C)(C)CCOc1ccccc1` [PCM-0214763], the inhibition at 10 µM is -14.8%.

As for `NC(N)=NC(N)=NCCc1ccccc1` [PCM-0085798], the inhibition at 10 µM stood at 4.1%.

`O=C(Nc1cccnc1)N1CCC(Cc2cccc(Oc3ccc(C(F)(F)F)cn3)c2)CC1` [PCM-0095330]: the inhibition at 10 µM is -4.8%.

Regarding `O=C(NC[C@H]1CN(c2ccc(N3CCOCC3=O)cc2)C(=O)O1)c1ccc(Cl)s1` [PCM-0095448], the inhibition at 10 µM came to 4.7%.

For the molecule `NC(N)=NCCCC[C@H](N)C(=O)O` [PCM-0216161], the inhibition at 10 µM is -8.5%.

Take `CC(C)(O)CNc1ncc(-c2ccnc(Nc3ccnc(Cl)c3)n2)c(CC2CC2)n1` [PCM-0215614]: the inhibition at 10 µM is -14.5%.

For the molecule `CNC(=O)c1cc(COc2nnc(Nc3ccc(Cl)cc3)c3ccoc23)ccn1` [PCM-0095270], the inhibition at 10 µM was determined as 15.2%.

Take `CCCN(CCC)S(=O)(=O)c1ccc(C(=O)O)cc1` [PCM-0086122]: the inhibition at 10 µM is -4.7%.

Take `O=C(c1ccccc1O)c1[nH]c(Cl)c(Cl)c1-n1c(C(=O)c2ccccc2O)cc(Cl)c1Cl` [PCM-0215850]: the inhibition at 10 µM turned out to be 117%.

In the case of `COc1cc2ncnc(Sc3nnc(C)s3)c2cc1OC` [PCM-0215288], the inhibition at 10 µM amounted to 5.5%.

`COc1cc(-c2cn(C)c(=O)c3cnccc23)cc(OC)c1CN(C)C` [PCM-0215650]: the inhibition at 10 µM is -3.1%.

As for `CC1=C(/C=C/C(C)=C/C=C/C(C)=C\C(=O)O)C(C)(C)CCC1` [PCM-0065511], the inhibition at 10 µM was -42.1%.

Turning to `Clc1ccccc1C(c1ccccc1)(c1ccccc1)n1ccnc1` [PCM-0064702], the inhibition at 10 µM was -2.3%.

In the case of `N#CC1(c2ccc(NC(=O)c3cccnc3NCc3ccncc3)cc2)CCCC1` [PCM-0095263], the inhibition at 10 µM was determined as 2.8%.

With `N#CC[C@@H](C1CCCC1)n1cc(-c2ncnc3[nH]ccc23)cn1` [PCM-0095369], the inhibition at 10 µM amounted to 15.9%.

Regarding `CCC[S+]([O-])c1ccc2nc(NC(=O)OC)[nH]c2c1` (stereo not drawn) [PCM-0095157], the inhibition at 10 µM came out at 20.2%.

As to `O=C(Nc1ccccc1-c1cn2c(CN3CCNCC3)csc2n1)c1cnc2ccccc2n1` [PCM-0094935], the inhibition at 10 µM is 10.3%.

On to `COc1cc2ncnc(Oc3ccc(CC(=O)Nc4cnn(C(C)C)c4)cc3)c2cc1OC` [PCM-0215465], for which the inhibition at 10 µM was -11.7%.

`CCCCCCCCCCCCCCCC(=O)OC` [PCM-0216632]: the inhibition at 10 µM came to 25.5%.

Regarding `Cc1ccc(NC(=O)C2(c3ccc4c(c3)OC(F)(F)O4)CC2)nc1-c1cccc(C(=O)O)c1` [PCM-0095124], the inhibition at 10 µM was -9.3%.

As to `COc1ccc(Cl)cc1NC(=O)Nc1cc(C)nc2ccccc12` [PCM-0095597], the inhibition at 10 µM is 9%.

`Cc1ccc(Sc2ccccc2N2CCNCC2)c(C)c1` [PCM-0095609]: the inhibition at 10 µM is -6.9%.

Regarding `NC1=NC(=O)/C(=C/c2ccc(O)cc2)S1` [PCM-0215596], the inhibition at 10 µM was found to be 17%.

Regarding `COc1ccnc(C[S+]([O-])c2nc3ccc(-n4cccc4)cc3[nH]2)c1C` (stereo not drawn) [PCM-0214937], the inhibition at 10 µM was 25.7%.

For `COC(=O)c1cc(OC)c(O)c(OC)c1` [PCM-0215058], the inhibition at 10 µM was -17.1%.

With `C[C@H]1c2cccc(O)c2C(O)=C2C(=O)[C@]3(O)C(O)=C(C(N)=O)C(=O)[C@@H](N(C)C)[C@@H]3[C@@H](O)[C@@H]21` [PCM-0215985], the inhibition at 10 µM was -21.6%.

Regarding `CC(=O)O[C@H](CC=C(C)C)C1=CC(=O)c2c(O)ccc(O)c2C1=O` [PCM-0216503], the inhibition at 10 µM came out at 35.7%.

Turning to `OCCn1cc(-c2ccc3c(c2)CC/C3=N\O)c(-c2ccncc2)n1` [PCM-0094883], the inhibition at 10 µM stood at 16.6%.

`CN1CCC(NC(=O)c2cc(-c3c(O)cc(O)cc3Oc3ccc([N+](=O)[O-])cc3)on2)CC1` [PCM-0215304]: the inhibition at 10 µM is -10.8%.

Regarding `CC/C(=C(\c1ccccc1)c1ccc(OCCN(C)C)cc1)c1ccccc1` [PCM-0064738], the inhibition at 10 µM is 7.6%.

With `CC(C)c1cnn2c(NCc3ccccc3-n3cccn3)nc(OC3CCCNC3)nc12` (stereo not drawn) [PCM-0215792], the inhibition at 10 µM is -2.8%.

Take `C[C@H](NC(=O)C(=O)Nc1ccccc1C(C)(C)C)C(=O)N[C@@H](CC(=O)O)C(=O)COc1c(F)c(F)cc(F)c1F` [PCM-0215672]: the inhibition at 10 µM is -17.9%.

Consider `NC(=O)c1noc([C@H](CCCC2CCCCC2)CC(=O)NO)n1` [PCM-0095693], for which the inhibition at 10 µM turned out to be 10.1%.

In the case of `Cc1cccc(Nc2ccncc2S(=O)(=O)NC(=O)NC(C)C)c1` [PCM-0086313], the inhibition at 10 µM is -4.3%.

Take `CC(C)=CCC[C@](C)(O)[C@H]1CC[C@]2(C)[C@@H]1[C@H](O)C[C@@H]1[C@@]3(C)CC[C@H](O)C(C)(C)[C@@H]3[C@@H](O)C[C@]12C` [PCM-0214875]: the inhibition at 10 µM was determined as 17.9%.

Turning to `CC(C)(O)CNc1ncc(-c2ccnc(Nc3ccncc3)n2)c(CC2CC2)n1` [PCM-0215768], the inhibition at 10 µM worked out at 9.7%.

For the molecule `N#C/C=C1/C=C[C@@H](O)[C@H](O)[C@H]1O[C@@H]1O[C@H](CO)[C@@H](O)[C@H](O)[C@H]1O` [PCM-0216369], the inhibition at 10 µM was -11.6%.

Take `c1ccc(-c2nn3c(c2-c2ccnc4cc(OCCN5CCOCC5)ccc24)CCC3)nc1` [PCM-0095413]: the inhibition at 10 µM is -24.7%.

As to `NC(=O)c1ccc(OCCCN2CC3CCCC3C2)cc1` (stereo not drawn) [PCM-0215865], the inhibition at 10 µM worked out at 6.2%.

As for `CCOC(=O)c1cc(O)c(O)c(O)c1` [PCM-0216263], the inhibition at 10 µM turned out to be 9.3%.

With `Cc1ccc(S(=O)(=O)Nc2cc(-c3ccc(C#N)s3)ccc2C)cc1` [PCM-0214896], the inhibition at 10 µM was -6.2%.

As to `Nc1ncc(-c2ccnc(Nc3ccncc3)n2)c(CC2CC2)n1` [PCM-0215628], the inhibition at 10 µM was found to be 8.3%.

For `CCOC(=O)OC(C)OC1=C(C(=O)Nc2ccccn2)N(C)S(=O)(=O)c2ccccc21` (stereo not drawn) [PCM-0090753], the inhibition at 10 µM is 2.1%.

Turning to `NC(=O)N1c2ccccc2CC(=O)c2ccccc21` [PCM-0086055], the inhibition at 10 µM is -10.1%.

Regarding `CCOC(=O)C1=C(C)NC(C)=C(C(=O)OCC)C1c1ccccc1/C=C/C(=O)OC(C)(C)C` [PCM-0085989], the inhibition at 10 µM stood at 16.3%.

Consider `O=C(O[C@@H]1Cc2c(O)cc(O)cc2O[C@H]1c1cc(O)c(O)c(O)c1)c1cc(O)c(O)c(O)c1` [PCM-0216357], for which the inhibition at 10 µM is 40.9%.

In the case of `O=C(O)CC(C(=O)O)n1c(O)c(C2=c3cc(Br)ccc3=NC2=O)sc1=S` (stereo not drawn) [PCM-0216114], the inhibition at 10 µM is 3.1%.

On to `COc1ccc2cc(CCC(C)=O)ccc2c1` [PCM-0086446], for which the inhibition at 10 µM was 7.6%.

As for `Cc1cc(S(=O)(=O)O)c2c(C)ccc(C(C)C)cc1-2` [PCM-0216127], the inhibition at 10 µM came to 37.2%.
